Experimental findings from patent US7041131B2, “Bioengineered vascular graft support prostheses” (Organogenesis, Inc., priority 1998, dated 2006) are described below.

Assay [1] deals with tube supported vein grafts. Kind of assay: Isometric tension studies on rings of tube supported vein grafts. Particulars: for EC50: Oryctolagus cuniculus, 672 h, read-out: Sensitivity, -log10(EC50) (converted). Also noted: species or system New Zealand male white rabbits. As for the experimental part:
(§1) Twenty-nine New Zealand male white rabbits underwent interposition bypass grafting of the right common carotid artery using the reversed ipsilateral jugular vein. In the experimental group (n=15), once the proximal anastomosis was performed, the vein was passed through a collagen tube having dimensions of 4 mm in diameter and 35 to 40 mm in length and the distal anastomosis was then completed. Leaks were repaired and the collagen tube was fashioned to completely cover the vein graft, including both anastomoses. Control animals (n=14) were treated identically but without tube support. One intraoperative death resulted from an unrecognized leak in the mid-segment of a vein graft in the experimental group. Otherwise, there were no other significant complications such as infection or bleeding in either group. […] Postoperatively, the flow rate and intraluminal pressure in vein grafts were measured on either day 3 or 28 (n=5 per group). Vein grafts were harvested on day 3 for assessment of tyrosine phosphorylation by Western blot analysis (n=4 per group), and on day 28 for morphometric measurement (n=5 per group), scanning and transmission electron microscopy (n=5 per group) and isometric tension studies (n=5 per group). On the day of harvest, animals were anesthetized and subsequently sacrificed with an intravenous overdose of barbiturates.
(§2) Vein grafts were sectioned into four 5 mm rings. In the tube supported group, the collagen tube was carefully dissected off and removed to allow unimpeded vessel contraction and relaxation. Each ring was immediately mounted between two stainless steel hooks in 5 ml organ baths containing oxygenated Krebs solution (122 mM NaCl, 4.7 mM KCl, 1 2 mM MgCl2, 2.5 mM CaCl2, 15.4 mM NaHCO3, 1.2 mM KH2PO4 and 5.5 mM glucose, maintained at 37° C. and oxygenated with 95% O2 and 5% CO2), as previously described with some modifications. In brief, following equilibration, the resting tension was adjusted in increments from 0.5 to 1.25 gms and the maximal response to a modified oxygenated Krebs solution containing 60 mM KCl, 66.7 mM NaCl, 1.2 mM MgCl2, 2.5 mM CaCl2, 15.4 mM NaHCO3, 1.2 mM KH2PO4 and 5.5 mM glucose was measured to establish a length-tension relationship. Cumulative dose response curves to the contractile agonists bradykinin (10^−9 to 10^−5 M), norepinephrine (10^−9 to 10^−4 M), and serotonin (10^−9 to 10^−4 M) were performed. Relaxation responses to acetylcholine (10^−8 to 10^−4 M), an endothelium dependent agonist, and nitroprusside (10^−8 to 10^−4 M), an endothelium independent agonist, were assessed on rings precontracted with norepinephrine, at the concentration which produced 80% of maximal contraction. All rings were allowed to re-equilibrate for a minimum of 30 minutes between each experimental run and the same sequence of agonist testing was maintained for all experiments. (All chemicals were obtained from Sigma Chemical Co. (St Louis, Mo.)).
(§3) The concentration for the half maximal response (EC50) was calculated by logistic analysis and the sensitivity is defined as -log10(EC50). In each vein graft, the sensitivity was determined for each vessel ring (4 rings per vein graft) and the mean was taken as the value for that vein graft. Values shown are the mean±s.e.m (n=5 per group). Statistical differences between the tube supported vein grafts and control vein grafts were compared using the unpaired Student's t-test.

In the next assay the test system is control vein grafts. The experiment in a line: Isometric tension studies on rings of control vein grafts. On the set-up: species or system New Zealand male white rabbits. Particulars: for EC50: Oryctolagus cuniculus, 672 h, read-out: Sensitivity, -log10(EC50) (converted); for EC50 / Sensitivity, -log10(EC50): day 28 control vein grafts without tube support, mean±s.e.m, n=5. How it is done:
as §1, §2, §3

[2] abbreviates: day 28 tube supported vein grafts, tube removed, mean±s.e.m, n=5.

Usually EC50 stands for the concentration that produces a half-maximal response. As for `NC[C@H](O)c1ccc(O)c(O)c1` [Norepinephrine, norepinephrine], the concentration for a half-maximal effect (EC50) in assay [1] (setting [2]) is 1100 nM; in the assay on control vein grafts, 1070 nM.
Regarding `[Cl-].[K+]` [KCl], the Contractile force in assay [1] (60 mM KCl, tube supported vein grafts) came out at 300 ± 46 mg; in the assay with control vein grafts (60 mM KCl, control vein grafts) it was 280 ± 47 mg.
`NCCc1c[nH]c2ccc(O)cc12` [Serotonin, serotonin]: the EC50 in assay [1] (setting [2]) was 407 nM; in the assay with control vein grafts, 525 nM.
Regarding nitroprusside, the results for the “Sensitivity, -log10(EC50)” value (in assay [1] (setting [2]); with control vein grafts) were 6.46 ± 0.12 and 6.73 ± 0.19, respectively.
As to `CC(=O)OCC[N+](C)(C)C` [Acetylcholine, acetylcholine], the EC50 in assay [1] (setting [2]) is 120000 nM. For the same molecule, the Maximal relaxation in assay [1] (tube supported vein graft rings precontracted with norepinephrine) is 64 % of precontracted tension. Besides, the “Sensitivity, -log10(EC50)” value in the assay with control vein grafts was “no response”.
